Assay results as given in ChEMBL document CHEMBL3885881, “DrugMatrix”.

Species: Rattus norvegicus
Test: DrugMatrix - Regimen: Daily Repeat
Assay type: toxicity, organism-based, Sprague-Dawley
Design: regimen Daily Repeat, gender Male, age 6-8 weeks
Conditions: in vivo, po, route oral GAVAGE, vehicle 100 % SALINE; for ABSOLUTE BASOPHIL / ABSOLUTE EOSINOPHIL / ABSOLUTE LYMPHOCYTE / ABSOLUTE MONOCYTE / ABSOLUTE SEGMENTED NEUTROPHIL / BASOPHIL / EOSINOPHIL / ERYTHROCYTE COUNT / HEMATOCRIT / HEMOGLOBIN / LEUKOCYTE COUNT / LYMPHOCYTE / MEAN CORPUSCULAR HEMOGLOBIN / MEAN CORPUSCULAR HEMOGLOBIN CONCENTRATION / MEAN CORPUSCULAR VOLUME / MONOCYTE / NEUTROPHIL / NUCLEATED RED BLOOD CELLS / PLATELET COUNT: tissue Blood; for ALANINE AMINOTRANSFERASE / ALBUMIN / ALKALINE PHOSPHATASE / ASPARTATE AMINOTRANSFERASE / BLOOD UREA NITROGEN / CARBON DIOXIDE / CHLORIDE / CHOLESTEROL / CREATINE PHOSPHOKINASE / CREATININE / GLUCOSE / LACTATE DEHYDROGENASE / LIPASE / PHOSPHORUS / POTASSIUM / SODIUM / TOTAL BILIRUBIN / TOTAL PROTEIN / URIC ACID: tissue Plasma
[1] = 0 mg/kg, 72 h, dose level Control, time 3 day
[2] = 0 mg/kg, 120 h, dose level Control, time 5 day
[3] = 11 mg/kg, 72 h, dose level High, time 3 day

## Cc1cc(CC(=O)O)n(C)c1C(=O)c1ccc(Cl)cc1 [ZOMEPIRAC]
[1]
  ABSOLUTE BASOPHIL: 0 CELLS/uL
  ABSOLUTE EOSINOPHIL: 65.67 CELLS/uL
  ABSOLUTE LYMPHOCYTE: 17283.5 CELLS/uL
  ABSOLUTE MONOCYTE: 0 CELLS/uL
  ABSOLUTE SEGMENTED NEUTROPHIL: 1284.17 CELLS/uL
  BASOPHIL: 0%
  EOSINOPHIL: 0.33%
  ERYTHROCYTE COUNT: 5.46 x10E6/uL
  HEMATOCRIT: 34.28%
  HEMOGLOBIN: 13.78 G/DL
  LEUKOCYTE COUNT: 18.63 x10E3/uL
  LYMPHOCYTE: 92.67%
  MEAN CORPUSCULAR HEMOGLOBIN: 25.3 pg
  MEAN CORPUSCULAR HEMOGLOBIN CONCENTRATION: 40.22 G/DL
  MEAN CORPUSCULAR VOLUME: 62.87 fL
  MONOCYTE: 0%
  NEUTROPHIL: 7%
  NUCLEATED RED BLOOD CELLS: 0 /100WBC
  PLATELET COUNT: 1244.83 x10E3/uL
  ALANINE AMINOTRANSFERASE: 52.83 u/L
  ALBUMIN: 4 G/DL
  ALKALINE PHOSPHATASE: 327.67 u/L
  ASPARTATE AMINOTRANSFERASE: 78.83 u/L
  BLOOD UREA NITROGEN: 13.83 mg/dL
  CARBON DIOXIDE: 26.67 mmol/L
  CHLORIDE: 99.67 MEQ/L
  CHOLESTEROL: 69 mg/dL
  CREATINE PHOSPHOKINASE: 350.17 u/L
  CREATININE: 0.21 mg/dL
  GLUCOSE: 173.83 mg/dL
  LACTATE DEHYDROGENASE: 168.33 u/L
  LIPASE: 11 u/L
  PHOSPHORUS: 12.7 mg/dL
  POTASSIUM: 6.88 MEQ/L
  SODIUM: 141.68 MEQ/L
  TOTAL BILIRUBIN: 0.22 mg/dL
  TOTAL PROTEIN: 6.02 G/DL
  URIC ACID: 1.9 mg/dL
[2]
  ABSOLUTE BASOPHIL: 0 CELLS/uL
  ABSOLUTE EOSINOPHIL: 14.83 CELLS/uL
  ABSOLUTE LYMPHOCYTE: 12880 CELLS/uL
  ABSOLUTE MONOCYTE: 90.67 CELLS/uL
  ABSOLUTE SEGMENTED NEUTROPHIL: 864.5 CELLS/uL
  BASOPHIL: 0%
  EOSINOPHIL: 0.17%
  ERYTHROCYTE COUNT: 5.83 x10E6/uL
  HEMATOCRIT: 35.87%
  HEMOGLOBIN: 14 G/DL
  LEUKOCYTE COUNT: 13.85 x10E3/uL
  LYMPHOCYTE: 92.5%
  MEAN CORPUSCULAR HEMOGLOBIN: 24.03 pg
  MEAN CORPUSCULAR HEMOGLOBIN CONCENTRATION: 39.03 G/DL
  MEAN CORPUSCULAR VOLUME: 61.53 fL
  MONOCYTE: 0.67%
  NEUTROPHIL: 6.67%
  NUCLEATED RED BLOOD CELLS: 0 /100WBC
  PLATELET COUNT: 1041.83 x10E3/uL
  ALANINE AMINOTRANSFERASE: 56 u/L
  ALBUMIN: 4.47 G/DL
  ALKALINE PHOSPHATASE: 319 u/L
  ASPARTATE AMINOTRANSFERASE: 89.17 u/L
  BLOOD UREA NITROGEN: 15.2 mg/dL
  CARBON DIOXIDE: 24 mmol/L
  CHLORIDE: 104.4 MEQ/L
  CHOLESTEROL: 69.5 mg/dL
  CREATINE PHOSPHOKINASE: 295.83 u/L
  CREATININE: 0.21 mg/dL
  GLUCOSE: 124.33 mg/dL
  LACTATE DEHYDROGENASE: 325.5 u/L
  LIPASE: 14.67 u/L
  PHOSPHORUS: 11.45 mg/dL
  POTASSIUM: 6.74 MEQ/L
  SODIUM: 151.4 MEQ/L
  TOTAL BILIRUBIN: 0.23 mg/dL
  TOTAL PROTEIN: 6.45 G/DL
  URIC ACID: 1.18 mg/dL
[3]
  ABSOLUTE BASOPHIL: 0 CELLS/uL
  ABSOLUTE EOSINOPHIL: 0 CELLS/uL
  ABSOLUTE LYMPHOCYTE: 16900 CELLS/uL
  ABSOLUTE MONOCYTE: 480 CELLS/uL
  ABSOLUTE SEGMENTED NEUTROPHIL: 3253.33 CELLS/uL
  BASOPHIL: 0%
  EOSINOPHIL: 0%
  ERYTHROCYTE COUNT: 5.38 x10E6/uL
  HEMATOCRIT: 33.2%
  HEMOGLOBIN: 13.37 G/DL
  LEUKOCYTE COUNT: 20.63 x10E3/uL
  LYMPHOCYTE: 83.67%
  MEAN CORPUSCULAR HEMOGLOBIN: 24.83 pg
  MEAN CORPUSCULAR HEMOGLOBIN CONCENTRATION: 40.27 G/DL
  MEAN CORPUSCULAR VOLUME: 61.67 fL
  MONOCYTE: 2%
  NEUTROPHIL: 14.33%
  NUCLEATED RED BLOOD CELLS: 0 /100WBC
  PLATELET COUNT: 1231.67 x10E3/uL
  ALANINE AMINOTRANSFERASE: 59 u/L
  ALBUMIN: 3.87 G/DL
  ALKALINE PHOSPHATASE: 255.33 u/L
  ASPARTATE AMINOTRANSFERASE: 72.67 u/L
  BLOOD UREA NITROGEN: 13.33 mg/dL
  CARBON DIOXIDE: 25.33 mmol/L
  CHLORIDE: 101 MEQ/L
  CHOLESTEROL: 69 mg/dL
  CREATINE PHOSPHOKINASE: 224.67 u/L
  CREATININE: 0.23 mg/dL
  GLUCOSE: 183.67 mg/dL
  LACTATE DEHYDROGENASE: 112.67 u/L
  LIPASE: 10.33 u/L
  PHOSPHORUS: 11.5 mg/dL
  POTASSIUM: 5.88 MEQ/L
  SODIUM: 141.43 MEQ/L
  TOTAL BILIRUBIN: 0.2 mg/dL
  TOTAL PROTEIN: 5.77 G/DL
  URIC ACID: 1.47 mg/dL
